# Test results: PubChem BioAssay AID1645868 (Buhrlage Lab, Dana-Farber Cancer Institute and Novartis …, 2021)
# Calls of active or inactive are those of the source.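 How the source made its calls: active means maximal percent inhibition of the deubiquitinase OTUD3 of at least 30% across the tested doses; inactive means the rest.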
# Biological target: OTU domain-containing protein 3 (Homo sapiens) (UniProt Q5T2D3)
# Assay: Validation of screening hits, potency titration, in vitro enzymatic, OTU domain-containing protein 3 DUB inhibitors (AID 1645868)
# Details: purified OTUD3, ubiquitin-rhodamine cleavage fluorescence, 2 h
# Sequence of OTU domain-containing protein 3 (Homo sapiens) (Q5T2D3 whole entry, looked up, the tested form may be a part): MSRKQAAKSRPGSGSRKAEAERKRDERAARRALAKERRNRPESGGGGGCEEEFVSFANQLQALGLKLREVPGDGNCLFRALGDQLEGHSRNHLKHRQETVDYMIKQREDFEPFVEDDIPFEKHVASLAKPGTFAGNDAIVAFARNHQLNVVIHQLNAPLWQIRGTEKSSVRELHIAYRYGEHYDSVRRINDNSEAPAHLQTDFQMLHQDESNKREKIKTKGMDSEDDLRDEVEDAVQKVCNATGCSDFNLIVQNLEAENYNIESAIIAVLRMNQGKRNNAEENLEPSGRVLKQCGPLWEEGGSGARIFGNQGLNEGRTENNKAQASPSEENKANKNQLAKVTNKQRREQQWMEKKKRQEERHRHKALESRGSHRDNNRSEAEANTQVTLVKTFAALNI
row,Compound,IC50
1,Cc1ccc(-c2nc(-c3cccs3)cc(C(F)(F)F)c2C#N)cc1,> 50 µM (inactive)
2,O=C(NC1(O)C(=O)c2ccccc2C1=O)c1cccc2c1-c1ccccc1C2=O,35.1 µM
3,O=C(O)c1ccccc1C(=O)Nc1ccc(SC(C(=O)Nc2ccccc2)c2ccccc2)cc1 (stereo not drawn),> 50 µM (inactive)
4,COc1ccc(OC)c(C2CC(=O)Nc3n[nH]c(-c4ccccc4)c32)c1 (stereo not drawn),37.8 µM
5,c1ccc(-c2noc(-c3cc(-c4ccncc4)nc4ccccc34)n2)nc1,> 50 µM (inactive)
6,COc1ccc(CCNC(=O)c2cc3ccccc3s2)cc1OC,> 50 µM (inactive)
7,CCCc1cc(=O)oc2cc(OCC(=O)NCc3ccc(OC)cc3)ccc12,36.2 µM
8,CC(=O)Nc1cc(-c2cccc(O)c2)cn2c(-c3cnn(C)c3)cnc12,> 50 µM (inactive)
9,O=C(COc1ccc(F)cc1)Nc1cc(F)c2nc(N3CCOCC3)ccc2c1,> 50 µM (inactive)
10,O=C(COc1ccc2c(c1)CCC2)Nc1ccc2c(c1)CCC2,> 50 µM (inactive)
11,Cc1ccc(C(=O)Nc2c(C(=O)N3CCN(c4ccccc4)CC3)[nH]c3ccccc23)cc1,> 50 µM (inactive)
12,Cc1ccc2c(c1)-c1c(c(C(=O)N3CCN(c4ccccc4)CC3)nn1C)CS2,> 50 µM (inactive)
13,O=C1CC(O)C(C2=CC(=O)c3c(O)cccc3C2=O)O1 (stereo not drawn),2.47 µM
14,COCCNC(=O)c1cc(-c2cn(-c3ccccn3)c(C)n2)n2ccccc12,> 50 µM (inactive)
15,CSc1cccc(NC(=O)CCc2ccc3nc(NC(C)=O)sc3c2)c1,> 50 µM (inactive)
16,Cc1nc2ccccn2c1C1(O)C(=O)Nc2c(Cl)cc(Cl)cc21 (stereo not drawn),> 50 µM (inactive)
17,Cc1ccc2c(c1C)NC(=O)[C@]21[C@@H]2C(=O)N(c3cccc(Cl)c3)C(=O)[C@@H]2[C@@H]2CCCN21,> 50 µM (inactive)
18,Cc1cccc(NC(=O)Cn2cnc(-c3noc(-c4ccccc4)n3)c2)c1C,2.42 µM
19,Cc1noc(NS(=O)(=O)c2ccc(NC(=O)CSc3ccc4ccccc4c3)cc2)c1C,> 50 µM (inactive)
20,CCCCOc1ccc(C(=O)Nc2ccc3c(c2)CCC(=O)N3CCC)cc1,> 50 µM (inactive)

row,Compound,IC50
1,Nc1c(-c2nc(-c3ccc4c(c3)OCO4)cs2)nnn1-c1ccccc1,> 50 µM (inactive)
2,COc1cccc(-c2nc3cnccn3c2NCc2ccc3c(c2)OCO3)c1,> 50 µM (inactive)
3,CC1OC2CC(O)C1(O)C1=C2C(=O)c2c(O)c3c(c(O)c2C1=O)[C@H](C)O[C@H]1CC(=O)O[C@@H]31 (stereo partly drawn),> 50 µM (inactive)
4,O=C(NCc1ccccc1)c1ccc(-c2ccc(N3CCCC3)nn2)cc1,> 50 µM (inactive)
5,COc1cccc(NC(=O)Cn2c(COc3ccccc3)nc3ccccc32)c1,> 50 µM (inactive)
6,CCn1cnc2c(-c3ccccc3)cn(CC(=O)NCc3ccc4c(c3)OCO4)c2c1=O,> 50 µM (inactive)
7,Cc1cc(C(F)(F)F)n(-c2ccc(NC(=O)Nc3cccc(C(F)(F)F)c3)cc2)n1,11.4 µM
8,COc1ccc(-c2cc3nc(C)cc(Nc4ccc(F)cc4)n3n2)cc1OC,> 50 µM (inactive)
9,O=S(=O)(c1ccc(F)cc1)N1CCCC1c1ccnc(Nc2cnccn2)n1 (stereo not drawn),> 50 µM (inactive)
10,Nc1c(C(=O)c2cccs2)oc2nc(-c3ccccc3)cc(-c3ccco3)c12,> 50 µM (inactive)
11,Cc1ccc2oc(=O)c(S(=O)(=O)N3CCCCC3)cc2c1,43.1 µM
12,O=C(Nc1cccc(C(F)(F)F)c1)c1cc2c(s1)-c1ccccc1OC2,15.2 µM
13,CC[C@@]1(O)C[C@H](OC2CC(N(C)C)C(OC3CC(O)C(OC4CCC(=O)C(C)O4)C(C)O3)C(C)O2)c2c(cc3c(c2O)C(=O)c2c(O)ccc(O)c2C3=O)[C@H]1C(=O)OC (stereo partly drawn),> 5 µM (inactive)
14,O=C(COc1ccc2c(-c3ccccc3)cc(=O)oc2c1)Nc1cccnc1,21.5 µM
15,N#Cc1c(Cl)cccc1Oc1ccc(S(=O)(=O)N2CCC(O)CC2)cc1,21.3 µM
16,COc1cccc(CN2CCc3nc4nc(C)ccc4cc3C2)c1,> 50 µM (inactive)
17,O=S(=O)(O)c1cc2cc3ccccc3cc2[nH]1,> 50 µM (inactive)
18,COc1c2c(cc3cc(O)c4c(=O)cc(C)oc4c13)CCC2=O,> 50 µM (inactive)
19,CCCn1c(=O)c(-c2ccc(C(=O)NCc3ccc(OC)cc3)cc2)nc2cccnc21,6.42 µM

# Results, then the molecule that gave them:
row,IC50,Compound
1,> 50 µM (inactive),Cc1nc2ccccc2nc1SCC(=O)Nc1ccc2c(c1)OCO2
2,> 50 µM (inactive),O=C1COc2ccc(NC(=O)c3cnn(Cc4ccccc4)c3)cc2N1
3,> 50 µM (inactive),Cn1cc2cccc(NC(=O)c3ccc(F)cc3)c2n1
4,> 50 µM (inactive),Cc1ccc(-n2nc(C)c3c2NC(=O)CC3C(=O)c2cc3ccccc3o2)cc1C (stereo not drawn)
5,36.9 µM,O=C(Nc1cccc(-c2noc(C3CCC3)n2)c1)C1CC(=O)N(c2ccccc2)C1 (stereo not drawn)
6,> 50 µM (inactive),O=C1NCCCC1Cc1ccc(-c2cccc(C(=O)N3CCc4ccccc4C3)c2)cc1 (stereo not drawn)
7,> 50 µM (inactive),Cc1cc(C)n(-c2cccc(C(=O)Nc3ccc4c(c3)CCN4S(C)(=O)=O)c2)n1
8,5.01 µM,O=C(Nc1ccc(-c2cn3ccsc3n2)cc1)c1ccc(Cl)c([N+](=O)[O-])c1
9,> 50 µM (inactive),CN1CCN(C(=O)c2cc(-c3ccn(-c4ccccc4)n3)n3ccccc23)CC1
10,> 50 µM (inactive),O=C(Nc1ccc(NS(=O)(=O)c2ccc3c4c(cccc24)CC3)cc1)c1ccccc1
11,19 µM,O=C(CN1C(=O)C2CCCC2=Nc2ccccc21)Nc1cc(F)ccc1F (stereo not drawn)
12,35 µM,Cc1ccc(-c2c(C(=O)Nc3ccc(S(N)(=O)=O)cc3)oc(=O)c3ccccc23)cc1
13,> 50 µM (inactive),N#Cc1cccc(NC(=O)Nc2cccn(Cc3ccccc3F)c2=O)c1
14,> 50 µM (inactive),CC(C)Cc1nc2sc3c(NCCN4CCOCC4)ncnc3c2c2c1CCC2
15,> 50 µM (inactive),Cc1ccc(Cn2nnc(C(=O)NCc3ccco3)c2-n2cccc2)cc1
16,> 50 µM (inactive),Cn1c(=O)c2c(ncn2CC(=O)NC2CCCc3ccccc32)n(C)c1=O (stereo not drawn)
17,> 50 µM (inactive),Cn1cc(CCNC(=O)c2cc3ccccc3[nH]2)c2cccnc21
18,> 50 µM (inactive),Cc1cc(N2CCOCC2)nc2ccc(NC(=O)CCC(=O)Nc3ccc(F)cc3)cc12
19,> 50 µM (inactive),O=C(CC1C(=O)N(Cc2cccnc2)c2nc3ccccc3n21)Nc1cccc2ccccc12 (stereo not drawn)
20,33.6 µM,O=C(O)c1ccccc1C(=O)Nc1ccc(SC(C(=O)Nc2cccc(Cl)c2)c2ccccc2)cc1 (stereo not drawn)
21,> 50 µM (inactive),COCCNC(=O)c1ccn(-c2ccc3ccc(-c4cnn(C)c4)cn23)n1
22,> 50 µM (inactive),Cc1cccc(NC(=O)Nc2ccc(C)n(CC(=O)Nc3ccccc3)c2=O)c1
23,> 50 µM (inactive),N#Cc1ccc(NC(=O)COC(=O)c2ccc3ccccc3n2)cc1
24,> 50 µM (inactive),CCn1ccc2c(cc(C(=O)Nc3cc(F)ccc3F)n2C)c1=O
25,31.4 µM,O=C(Nc1cc(-c2cccnc2)no1)c1ccc(F)c(F)c1
26,> 50 µM (inactive),CC1(C)C[C@@H](O)[C@]2(C)CC[C@]3(C)C(=CCC4[C@@]5(C)CC[C@H](O)[C@](C)(CO)[C@@H]5CC[C@]43C)[C@@H]2C1 (stereo partly drawn)
27,> 50 µM (inactive),O=[N+]([O-])c1ccc(NCC2COc3ccccc3O2)c(Cl)c1 (stereo not drawn)
28,> 50 µM (inactive),COc1cc2c(cc1OC)-c1cc(NCc3cc(OC)c(OC)c(OC)c3)nc(=O)n1CC2
29,> 50 µM (inactive),O=C(CCC1CCCCC1)Nc1ccccc1C(=O)N1CCOCC1
